From US20090005326A1, “SINGLE DOSE ROXITHROMYCIN” (priority 2007, published 2009)
Where two headings read alike, the source gives them in different places.

Assays:
[1] = Elimination T1/2 of roxithromycin in a cat; assay type: in vivo; details: administered to a cat; route and dose not stated
Method: The phrase “elimination half life” or “T1/2,” as used herein, has the conventional meaning used in pharmacokinetics, i.e., the time taken for the maximum plasma concentration (Cmax) of a drug to reduce by 50%.
Therefore, the rate of clearance of roxithromycin from a cat, i.e., as measured by the T1/2, is much slower than when roxithromycin is administered to, for example, a human. The unexpectedly slow rate of clearance (long T1/2) allows bacterial infections in cats to be advantageously treated with a single administration of roxithromycin administered either orally or by injection. Treating a bacterial infection using a single dose of roxithromycin is simpler, more cost effective, and results in better patient compliance. Furthermore, single dose administration of roxithromycin is believed to reduce the risk of microbial strains emerging that are resistant to roxithromycin. Single dose administration of roxithromycin by injection is advantageous because administration by injection bypasses liver metabolism and the single administration precludes multiple visits to the veterinarian. Single dose administration orally, however, is less painful and can permit administration without requiring a visit to the veterinarian.

[2] = tested on: Pasteurella multocida; assay: MIC, single disc method; assay type: cell-based
Method: (§1) Typically, to be effective, the minimum inhibitory concentration of the roxithromycin against a specific bacteria should be less than 10 μg/mL, preferably less than 5 μg/mL, more preferably less than 2 μg/mL, even more preferably less than 1 μg/mL, and most preferably less than 0.5 μg/mL. The activity of roxithromycin against a bacteria can be determined using standard dilution tests. For example, the minimum inhibitory concentrations can be determined using the disk diffusion susceptibility testing method described in Clinical Microbiology Procedures Handbook, volume 1, edited by Henry D. Isenberg, American Society for Microbiology, 1992, section 5.1 or the well known method of Bauer et al. “Antibiotic Susceptibility Testing by a Standardized Single Disc Method,” Amer. J. Clin. Pathol., 45, p. 493-496.
(§2) FIG. 1 provides a graphical representation of the average plasma serum concentration of roxithromycin as a function of time for the 5 cats that were administered a single dose of roxithromycin by subcutaneous injection at a dose of 10 mg/kg as a formulation containing 200 mg/mL of roxithromycin in 10% propylene glycol in glycerol formal. […] J. Clin. Pathol., 45, p. 493-496.

[3] = tested on: Streptococcus pneumoniae; assay: MIC, single disc method; assay type: cell-based
Method: as §1, §2

[4] = tested on: Escherichia coli; assay: MIC, single disc method; assay type: cell-based
Method: as §1, §2

[5] = tested on: Enterococcus faecalis; assay: MIC, single disc method; assay type: cell-based
Method: as §1, §2

[6] = tested on: Streptococcus pyogenes; assay: MIC, single disc method; assay type: cell-based
Method: as §1, §2

[7] = tested on: Staphylococcus aureus; assay: MIC, single disc method; assay type: cell-based
Method: as §1, §2

[8] = tested on: Bacillus subtilis; assay: MIC, single disc method; assay type: cell-based
Method: as §1, §2

[9] = tested on: Clostridium perfringes; assay: MIC, single disc method; assay type: cell-based
Method: as §1, §2

[10] = cat, single oral dose 20 mg/kg, capsule of powdered roxithromycin
[11] = Serum concentration after single subcutaneous injection to cats; assay type: in vivo; details: cat, single subcutaneous injection 10 mg/kg, 200 mg/mL in 10% propylene glycol in glycerol formal
Method: Five cats (mixed breed of various sizes, males and female, approximately 4 kg) were administered 10 mg/kg of a roxithromycin composition by subcutaneous injection between the shoulder blades. The roxithromycin composition was prepared by weighing 5.128 g of roxithromycin (purity 97.5%) into a 25 mL volumetric flask, adding 2.5 mL of propylene glycol, and filling to volume with stabilized glycerol formal.
Cats were kept in a stainless steel, suspended, wire bottom cage, at least 3′×3′, provided with a litter box in an environmentally controlled room (22±3° C., a relative humidity of 30-80%, a 12 hour light/dark schedule, and room ventilation of approximately 10-12 air changes per hour.) Tap water was available ad libitum and the cats were fed PMI Feline Lab Diet #5003 or other commercial product.
Blood samples were collected on Day-1 and approximately 1 mL of whole blood was collected at 1, 8, 24, 36, 48, 60, and 72 hr following dosing and twice-daily thereafter through study termination on day 10. […] The dose site was monitored daily during the study.
The serum was analyzed by high pressure liquid chromatograph (“HPLC”) using the following procedure: […]
The serum concentration of roxithromycin was then determined by comparing the area under the curve for the HPLC peak corresponding to roxithromycin to a standard curve of peak areas v. known concentrations of roxithromycin in serum. […]

[12] = in humans; cited from earlier work
[13] = literature; cited from earlier work

Substance: roxithromycin
- elimination T1/2 [1]: about 73.5 hours
- Minimum Inhibitory Concentration (MIC) [2]: 1 µg/mL
- Minimum Inhibitory Concentration (MIC) [3]: 0.25 µg/mL
- Minimum Inhibitory Concentration (MIC) [4]: 32 µg/mL
- Minimum Inhibitory Concentration (MIC) [5]: 8 µg/mL
- Minimum Inhibitory Concentration (MIC) [6]: 0.25 µg/mL
- Minimum Inhibitory Concentration (MIC) [7]: 0.25 µg/mL
- Minimum Inhibitory Concentration (MIC) [8]: 0.25 µg/mL
- Minimum Inhibitory Concentration (MIC) [9]: 2 µg/mL
- time for which serum concentration exceeds the MIC for several bacterial organisms [10]: at least 150 hours
- time for which serum concentration exceeds the MIC for several bacterial organisms [11]: more than 190 hours
- half-life [12]: 10 to 12 h
- stability in acidic environments [13]: acid labile
